Row | melting point | SMILES
1 | 146.3 to 147.1 °C | CCc1ccc(CC(=O)Nc2ccccc2Cl)cc1Oc1cc(Cl)ccc1Cl [Compound I-21, N-(2-Chloro-phenyl)-2-[3-(2,5-dichloro-phenoxy)-4-ethyl-phenyl]-acetamide]
2 | 197.2 to 198.1 °C | O=C(Cc1ccc(Cl)c(C(=O)c2cc(Cl)cc(Cl)c2)c1)Nc1ccccc1Cl [Compound I-247, 2-[4-Chloro-3-(3,5-dichloro-benzoyl)-phenyl]-N-(2-chloro-phenyl)-acetamide]
3 | 190 to 193.4 °C | CCc1ccc(CC(=O)Nc2ccc(S(N)(=O)=O)cc2)cc1Oc1cc(Cl)ccc1Cl [Compound I-19, 2-[3-(2,5-Dichloro-phenoxy)-4-ethyl-phenyl]-N-(4-sulfamoyl-phenyl)-acetamide]
4 | 142.9 to 143.6 °C | CC(C)c1ccc(CC(=O)Nc2ccccc2Cl)cc1Oc1cc(Cl)ccc1Br [Compound I-27, 2-[3-(2-Bromo-5-chloro-phenoxy)-4-isopropyl-phenyl]-N-(2-chloro-phenyl)-acetamide]
5 | 175.1 to 177.5 °C | Cc1ccc(CC(=O)Nc2ccccc2Cl)cc1Oc1cc(C#N)cc(C#N)c1 [Compound I-34, N-(2-Chloro-phenyl)-2-[3-(3,5-dicyano-phenoxy)-4-methyl-phenyl]-acetamide]
6 | 141.1 to 144.9 °C | O=C(Cc1cc2c(c(C(=O)c3ccc(Cl)cc3)c1)OCC2)Nc1ccccc1Cl [Compound I-240, 2-[7-(4-Chloro-benzoyl)-2,3-dihydro-benzofuran-5-yl]-N-(2-chloro-phenyl)-acetamide]
7 | 119.7 to 123.3 °C | CCc1ccc(CC(=O)Nc2ccc(S(N)(=O)=O)cc2)cc1Oc1cc(C#N)cc(C#N)c1Cl [Compound I-52, 2-[3-(2-Chloro-3,5-dicyano-phenoxy)-4-ethyl-phenyl]-N-(4-sulfamoyl-phenyl)-acetamide]
8 | 200.5 to 203.5 °C | Cc1cc(S(N)(=O)=O)ccc1NC(=O)Cc1ccc(C)c(Oc2cc(Cl)ccc2Br)c1 [Compound I-31, 2-[3-(2-Bromo-5-chloro-phenoxy)-4-methyl-phenyl]-N-(2-methyl-4-sulfamoyl-phenyl)-acetamide]
9 | 168 to 169.9 °C | CCc1ccc(CC(=O)Nc2ccccc2Cl)cc1Oc1cc(Cl)ccc1C#N [Compound I-18, 2-[3-(5-Chloro-2-cyano-phenoxy)-4-ethyl-phenyl]-N-(2-chloro-phenyl)-acetamide]
10 | 113 to 113.8 °C | Cc1cc(CC(=O)Nc2ccccc2Cl)cc(C(=O)c2cccc(Cl)c2)c1 [Compound I-262, 2-[3-(3-Chloro-benzoyl)-5-methyl-phenyl]-N-(2-chloro-phenyl)-acetamide]
11 | 180.3 to 183.1 °C | CCc1ccc(CC(=O)Nc2ccc(S(N)(=O)=O)cc2Cl)cc1Oc1cc(C#N)cc(C#N)c1Cl [Compound I-54, 2-[3-(2-Chloro-3,5-dicyano-phenoxy)-4-ethyl-phenyl]-N-(2-chloro-4-sulfamoyl-phenyl)-acetamide]
12 | 193.7 to 195.9 °C | CCc1ccc(CC(=O)Nc2ccc(S(N)(=O)=O)cc2)cc1Oc1cc(Cl)ccc1Br [Compound I-15, 2-[3-(2-Bromo-5-chloro-phenoxy)-4-ethyl-phenyl]-N-(4-sulfamoyl-phenyl)-acetamide]

The next lines start with the molecule.

Row | SMILES | melting point
13 | COc1cc(CC(=O)Nc2ccc(S(N)(=O)=O)cc2C)cc(Oc2cc(Cl)cc(C#N)c2)c1 [Compound I-133, 2-[3-(3-Chloro-5-cyano-phenoxy)-5-methoxy-phenyl]-N-(2-methyl-4-sulfamoyl-phenyl)-acetamide] | 169.9 to 171.1 °C
14 | NS(=O)(=O)c1ccc(NC(=O)Cc2ccc(Cl)c(Cc3cc(Cl)ccc3Cl)c2)c(Cl)c1 [Compound I-209, 2-[4-Chloro-3-(2,5-dichloro-benzyl)-phenyl]-N-(2-chloro-4-sulfamoyl-phenyl)-acetamide] | 219.3 to 221.5 °C
15 | Cc1cc(S(=O)(=O)N2CCSCC2)ccc1NC(=O)Cc1ccc(C)c(Oc2cc(Cl)cc(C#N)c2)c1 [Compound I-117, 2-[3-(3-Chloro-5-cyano-phenoxy)-4-methyl-phenyl]-N-[2-methyl-4-(thiomorpholine-4-sulfonyl)-phenyl]-acetamide] | 151.9 to 155.3 °C
16 | CCC(=O)N(C)S(=O)(=O)c1ccc(NC(=O)Cc2ccc(Cl)c(Oc3cc(Cl)cc(C#N)c3)c2F)c(Cl)c1 [Compound I-162, 2-[4-Chloro-3-(3-chloro-5-cyano-phenoxy)-2-fluoro-phenyl]-N-[2-chloro-4-(methyl-propionyl-sulfamoyl)-phenyl]-acetamide] | 198.2 to 200.6 °C
17 | NS(=O)(=O)c1ccc(NC(=O)Cc2cc(Oc3cc(Cl)cc(Cl)c3)c3occc3c2)c(Cl)c1 [Compound I-149, N-(2-Chloro-4-sulfamoyl-phenyl)-2-[7-(3,5-dichloro-phenoxy)-benzofuran-5-yl]-acetamide] | 215.1 to 216.6 °C
18 | COc1cc(CC(=O)Nc2ccc(S(N)(=O)=O)cc2)cc(Oc2cc(C#N)ccc2Cl)c1 [Compound I-102, 2-[3-(2-Chloro-5-cyano-phenoxy)-5-methoxy-phenyl]-N-(4-sulfamoyl-phenyl)-acetamide] | 180.5 to 181.3 °C
19 | Cc1cc(OC[C@@H](O)CO)ccc1NC(=O)Cc1ccc(C)c(Oc2cc(Cl)cc(C#N)c2)c1 [Compound I-150, 2-[3-(3-Chloro-5-cyano-phenoxy)-4-methyl-phenyl]-N-[4-((S)-2,3-dihydroxy-propoxy)-2-methyl-phenyl]-acetamide] | 137.5 to 138.4 °C
20 | N#Cc1cc(Oc2c(Br)ccc(CC(=O)Nc3ccc(S(N)(=O)=O)cc3Cl)c2F)cc(C(F)F)c1 [Compound I-165, 2-[4-Bromo-3-(3-cyano-5-difluoromethyl-phenoxy)-2-fluoro-phenyl]-N-(2-chloro-4-sulfamoyl-phenyl)-acetamide] | 205.4 to 207.7 °C
21 | Cc1cc(CC(=O)Nc2ccc(S(N)(=O)=O)cc2Cl)cc(Oc2cc(Cl)cc(C#N)c2)c1 [Compound I-143, 2-[3-(3-Chloro-5-cyano-phenoxy)-5-methyl-phenyl]-N-(2-chloro-4-sulfamoyl-phenyl)-acetamide] | 194.1 to 195.9 °C
22 | Cc1cc(S(=O)(=O)NC(=O)c2cccnc2)ccc1NC(=O)Cc1ccc(Cl)c(Oc2cc(Cl)cc(C#N)c2)c1F.Cl | 261.8 to 263.6 °C
23 | Cc1cc(C#N)cc(Oc2c(Cl)ccc(CC(=O)Nc3ccc(S(N)(=O)=O)cc3C)c2F)n1 [Compound I-124, 2-[4-Chloro-3-(4-cyano-6-methyl-pyridin-2-yloxy)-2-fluoro-phenyl]-N-(2-methyl-4-sulfamoyl-phenyl)-acetamide] | 230.1 to 230.7 °C
24 | NS(=O)(=O)c1ccc(NC(=O)Cc2ccc(Cl)c(Sc3cc(Cl)ccc3Br)c2)cc1 [Compound I-243, 2-[3-(2-Bromo-5-chloro-phenylsulfanyl)-4-chloro-phenyl]-N-(4-sulfamoyl-phenyl)-acetamide] | 220 to 222.3 °C
25 | Cc1cc(CC(=O)Nc2ccc(S(N)(=O)=O)cc2C)cc(C(=O)c2cccc(Cl)c2)c1 [Compound I-260, 2-[3-(3-Chloro-benzoyl)-5-methyl-phenyl]-N-(2-methyl-4-sulfamoyl-phenyl)-acetamide] | 210.3 to 211.6 °C
26 | COc1cc(CC(=O)Nc2ccc(S(N)(=O)=O)cc2C)cc(Oc2cc(C#N)ccc2Cl)c1 [Compound I-103, 2-[3-(2-Chloro-5-cyano-phenoxy)-5-methoxy-phenyl]-N-(2-methyl-4-sulfamoyl-phenyl)-acetamide] | 179.8 to 184 °C
27 | Cc1cc(CC(=O)Nc2ccc(S(N)(=O)=O)cc2)cc(Oc2cc(Cl)cc(C#N)c2)c1 [Compound I-141, 2-[3-(3-Chloro-5-cyano-phenoxy)-5-methyl-phenyl]-N-(4-sulfamoyl-phenyl)-acetamide] | 183.9 to 185.2 °C
28 | Cc1ccncc1NC(=O)Cc1ccc(C)c(Oc2cc(Cl)cc(C#N)c2)c1 [Compound I-224, 2-[3-(3-Chloro-5-cyano-phenoxy)-4-methyl-phenyl]-N-(4-methyl-pyridin-3-yl)-acetamide] | 158.6 to 159.1 °C
29 | CSCCNS(=O)(=O)c1ccc(NC(=O)Cc2ccc(C)c(Oc3cc(Cl)cc(C#N)c3)c2)c(C)c1 [Compound I-130, 2-[3-(3-Chloro-5-cyano-phenoxy)-4-methyl-phenyl]-N-[2-methyl-4-(2-methylsulfanyl-ethylsulfamoyl)-phenyl]-acetamide] | 155.6 to 156.6 °C
30 | CSCCCNS(=O)(=O)c1ccc(NC(=O)Cc2ccc(C)c(Oc3cc(Cl)cc(C#N)c3)c2)c(C)c1 [Compound I-131, 2-[3-(3-Chloro-5-cyano-phenoxy)-4-methyl-phenyl]-N-[2-methyl-4-(3-methylsulfanyl-propylsulfamoyl)-phenyl]-acetamide] | 159.9 to 162.8 °C
31 | Cc1ccc(CC(=O)Nc2ncccc2C)cc1Oc1cc(Cl)cc(C#N)c1 [Compound I-225, 2-[3-(3-Chloro-5-cyano-phenoxy)-4-methyl-phenyl]-N-(3-methyl-pyridin-2-yl)-acetamide] | 137.9 to 138.8 °C
32 | CCCCC(=O)NS(=O)(=O)c1ccc(NC(=O)Cc2ccc(Cl)c(Oc3cc(Cl)cc(C#N)c3)c2F)c(Cl)c1.[Na] | 157.6 to 159.2 °C
33 | CC(C)[C@H](N)C(=O)NS(=O)(=O)c1ccc(NC(=O)Cc2ccc(Cl)c(Oc3cc(Cl)cc(C#N)c3)c2F)c(Cl)c1.[Na] [Compound I-127, N-[4-((S)-2-Amino-3-methyl-butyrylsulfamoyl)-2-chloro-phenyl]-2-[4-chloro-3-(3-chloro-5-cyano-phenoxy)-2-fluoro-phenyl]-acetamide; sodium salt] | 219.4 to 220.2 °C
34 | Cc1cc(S(N)(=O)=O)ccc1NC(=O)Cc1ccc(Cl)c(Oc2cc(Br)cc(C#N)c2)c1F [Compound I-185, 2-[3-(3-Bromo-5-cyano-phenoxy)-4-chloro-2-fluoro-phenyl]-N-(2-methyl-4-sulfamoyl-phenyl)-acetamide] | 246 to 250.6 °C
35 | N#Cc1cc(Cl)cc(Oc2c(Cl)ccc(CC(=O)Nc3ccc(S(N)(=O)=O)cc3Cl)c2F)c1 [Compound I-100, 2-[4-Chloro-3-(3-chloro-5-cyano-phenoxy)-2-fluoro-phenyl]-N-(2-chloro-4-sulfamoyl-phenyl)-acetamide] | 234.4 to 234.9 °C
36 | Cc1cc(S(N)(=O)=O)ccc1NC(=O)Cc1ccc(C)c(Oc2cc(Cl)cc(C#N)c2)c1F [Compound I-74, 2-[3-(3-Chloro-5-cyano-phenoxy)-2-fluoro-4-methyl-phenyl]-N-(2-methyl-4-sulfamoyl-phenyl)-acetamide] | 230 to 232.2 °C

From patent US8329755B2, “Methods for treating retroviral infections” (Roche Palo Alto LLC, priority 2004, dated 2012)
